Where two headings read alike, the source gives them in different places.
Experiments:
[1] = system: chloroquine resistant P. falciparum parasites (strain Dd2); assay: Parasite growth inhibition assay in human red blood cells (flow cytometry, acridine orange); type: cell-based; conditions: Plasmodium falciparum, Erythrocyte
Method: The chloroquine resistant P. falciparum parasites (strain Dd2) were cultured in de-identified, IRB-exempt human red blood cells (RBCs) obtained from the American Red Cross and parasite cultures were maintained as described. Parasitaemia (percentage of total RBCs infected) was measured by flow cytometry on an Attune NxT (ThermoFisher) by nucleic-acid staining of cultured RBCs with phosphate-buffered saline (PBS) containing 0.8 µg ml^−1 acridine orange. We began by determining percent growth inhibition at single compound dose (20 µM) for the 102 non-toxic compounds. […] The experiments were initiated with a starting parasitaemia of ∼1% and parasitaemia was measured 72 and 96 h post compound addition. Growth was normalised to parasite cultures with carrier only (DMSO).
(§1) We tested the ability of the 102 compounds to kill P. falciparum parasites cultured in human red blood cells. Due to the number of compounds, we used a single inhibitor concentration of 20 µM and performed experiments in triplicate. […] These compounds were then tested in a dose-response format against chloroquine resistant P. falciparum parasites (Dd2) and the resulting data were fit to a sigmoidal growth inhibition curve to determine EC50 values (Figure 5, Table 2). […] Finally, to determine if the compounds were killing the parasites solely via apicoplast disruption, the dose-response curves were also performed with 1 mM isopentylpyrophosphate (IPP) in the growth media (Table 2). […] Very little is known regarding mitochondrial DNA replication in P. falciparum; however, signal sequence identification algorithms have predicted that the other bacterial A-family DNA polymerase residing in P. falciparum is targeted to the mitochondria (PF3D7_0625300)[29]. […] We are currently in the process of cloning and expressing this putative mitochondrial DNA polymerase to determine the effect of these compounds on its activity.

[2] = target: Babesia bovis apicoplast DNA polymerase (Bb-apPOL); assay: In vitro DNA polymerase inhibition assay, Bb-apPOL; type: biochemical; conditions: Table 2
Method: (§2) Codon-optimized, exonuclease-deficient Pf-apPOL was overexpressed in E. coli BL21 (DE3) and purified as described. The protein was dialysed against two, 1-liter changes of 20 mM Tris-HCl (pH 8.0), 400 mM NaCl, and 20% glycerol. Plasmodium bergei and Babesia bovis apPOLs (Pb-apPOL and Bb-apPOL, respectively) were codon-optimized, expressed, and purified as for Pf-apPOL[15]. Bacteriophage T4 DNA polymerase was purified as described. The DNA oligonucleotides used to make the high-throughput substrate were obtained from Integrated DNA Technologies. Deoxynucleotides were purchased from Strategene. All other materials came from Fisher Scientific.
as §1

[3] = target: P. falciparum apicoplast DNA polymerase (Pf-apPOL) (Plasmodium falciparum, UniProt Q8ILY1); assay: Fluorescence-based high-throughput DNA polymerase assay (molecular beacon), primary screen and dose-response; type: biochemical
How it was run: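 Single-point screening used 10 µM compound with 20 nM polymerase, 20 nM hairpin substrate and 6 µM dNTPs for 90 min at 25 °C. Confirmatory titrations (2.5–80 µM) followed fluorescence at three times, and IC50 was derived from a fit including a cooperativity term n.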

[4] = target: T1, P. berghei apicoplast DNA polymerase (Pb-apPOL) (Plasmodium berghei, UniProt A0A509ALK1); assay: In vitro DNA polymerase inhibition assay, Pb-apPOL; type: biochemical; conditions: Table 2
T1 sequence (A0A509ALK1 1182-1809): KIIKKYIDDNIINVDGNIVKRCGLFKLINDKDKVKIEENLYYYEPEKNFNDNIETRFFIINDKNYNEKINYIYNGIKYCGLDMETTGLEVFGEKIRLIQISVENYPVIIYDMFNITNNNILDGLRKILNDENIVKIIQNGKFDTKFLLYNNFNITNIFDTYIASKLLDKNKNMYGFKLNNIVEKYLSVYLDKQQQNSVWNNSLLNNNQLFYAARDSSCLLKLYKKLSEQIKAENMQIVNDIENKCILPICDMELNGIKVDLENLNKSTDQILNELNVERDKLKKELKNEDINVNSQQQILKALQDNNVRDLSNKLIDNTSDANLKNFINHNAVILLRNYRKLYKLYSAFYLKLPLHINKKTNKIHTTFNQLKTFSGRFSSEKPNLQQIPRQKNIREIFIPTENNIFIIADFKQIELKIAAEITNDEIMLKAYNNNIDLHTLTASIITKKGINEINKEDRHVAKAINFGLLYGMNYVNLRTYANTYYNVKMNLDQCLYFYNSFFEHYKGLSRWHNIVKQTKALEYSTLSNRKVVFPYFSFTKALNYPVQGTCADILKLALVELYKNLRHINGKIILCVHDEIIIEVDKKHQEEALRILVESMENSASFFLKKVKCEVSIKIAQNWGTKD
Method: as §2
The HT assay employs a molecular beacon, a stem-loop DNA template with a Cy3 dye and the Black Hole Quencher on the 3′ and 5′ ends of the DNA, respectively. Pf-apPOL concentration is based on a calculated absorptivity of ε280 = 56750 M^−1 cm^−1. Reactions were carried out at 25 °C, using Corning 3575 […] (well-volume, 20 µL). Assays testing for compound inhibition composed of reaction buffer (pH 7.9 in 50 mM potassium acetate, 20 mM Tris-acetate and 10 mM magnesium acetate), Pf-apPOL (20 nM), DNA substrate (20 nM), dNTPs (6 µM), and compound (10 µM in DMSO). The DNA and nucleotide substrates (dNTPs) were at concentrations of 20 nM and 6 µM, respectively, in the assay. Pf-apPOL was incubated in the reaction buffer with dNTPs and the compound of interest (10 µM, in the assay) at 25 °C for 10 min. The DNA substrate was then added and the reaction was allowed to proceed for 90 min at 25 °C.
In the above, Min is the average of fluorescence emission of the negative controls (substrate only), Max the average fluorescence emission from the positive controls (enzyme + substrate), and Test the emission from the assays in the presence of compounds (enzyme + compound + substrates). Dose-response confirmation assays were performed under similar conditions as the primary screen, but monitoring fluorescence at 10, 90, and 180 min. Tested concentrations of compounds were 2.5, 10, 20, 40, and 80 µM. The IC50 of each compound was determined using Equation (2): (2) […] Vmax/(1+ (I/IC50)^n)
We tested the ability of the 102 compounds to kill P. falciparum parasites cultured in human red blood cells. Due to the number of compounds, we used a single inhibitor concentration of 20 µM and performed experiments in triplicate. These single-dose assays identified 9 compounds that inhibited parasite growth by more than 50%. These compounds were then tested in a dose-response format against chloroquine resistant P. falciparum parasites (Dd2) and the resulting data were fit to a sigmoidal growth inhibition curve to determine EC50 values (Figure 5, Table 2). […] Inhibition of Pb-apPOL is a desired feature because it is likely that future in vivo studies will be performed in the mouse model for Malaria. […] The in vitro polymerase assays identified 5 compounds that were potent inhibitors of all three apicoplast polymerases and a single compound that inhibited Pf-apPOL and Bb-apPOL but not Pb-apPOL (Table 2). Finally, to determine if the compounds were killing the parasites solely via apicoplast disruption, the dose-response curves were also performed with 1 mM isopentylpyrophosphate (IPP) in the growth media (Table 2). […] At this time, it is unclear what the non-apicoplast target(s) may be. One intriguing possibility is that these compounds may be targeting both the apicoplast and the mitochondrial DNA polymerases. […]

[5] = Dd2 parasites in human RBCs, dose-response, no IPP, read-out: EC50
[6] = Dd2 parasites, 1 mM isopentylpyrophosphate (IPP) in the growth media, read-out: EC50 + IPP
[7] = read-out: IC50 Pf-apPOL, Table 2
[8] = supplemental file 2, sheet IC50 nontoxic compounds, Pf-apPOL

P. falciparum apicoplast DNA polymerase (Pf-apPOL), sequence (Q8ILY1 entry or part of it): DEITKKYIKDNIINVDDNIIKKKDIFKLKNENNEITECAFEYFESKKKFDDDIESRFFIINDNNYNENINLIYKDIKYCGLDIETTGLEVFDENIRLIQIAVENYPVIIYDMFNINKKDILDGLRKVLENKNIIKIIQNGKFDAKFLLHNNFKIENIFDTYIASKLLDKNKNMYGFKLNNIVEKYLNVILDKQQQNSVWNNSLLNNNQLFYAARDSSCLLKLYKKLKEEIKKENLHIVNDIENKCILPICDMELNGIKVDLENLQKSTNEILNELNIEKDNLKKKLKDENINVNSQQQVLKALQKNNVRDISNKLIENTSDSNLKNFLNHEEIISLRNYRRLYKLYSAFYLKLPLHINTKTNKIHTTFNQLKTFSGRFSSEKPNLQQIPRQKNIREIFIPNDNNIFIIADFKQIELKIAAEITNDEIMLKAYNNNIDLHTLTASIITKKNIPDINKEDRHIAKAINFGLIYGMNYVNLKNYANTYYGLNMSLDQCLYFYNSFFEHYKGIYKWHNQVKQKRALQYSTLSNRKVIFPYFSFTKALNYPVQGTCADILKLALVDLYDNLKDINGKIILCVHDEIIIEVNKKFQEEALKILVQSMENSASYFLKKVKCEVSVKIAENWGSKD

Row | SMILES | EC50 [1, 5] [µM] | EC50 [1, 6] [µM] | IC50 [2] [µM] | IC50 [3, 7] [µM] | IC50 [3, 8] [µM] | IC50 [4] [µM]
1 | O=[N+]([O-])/C=C/c1ccc(-c2ccc(Br)cc2)o1 [Molecule 31] | 8.9 ± 0.5 | 8.7 ± 0.6 | 15 ± 5 | 15 ± 1 | 15.8 | 
2 | CC(C)(C)c1cc(C(=O)C(C#N)=NNc2cccc(Cl)c2)no1 [Molecule 98] | 16 ± 1 | 11 ± 1 |  | 8 ± 2 | 8.45 | 
3 | O=C1Nc2ccc(I)cc2C1=Cc1cc(Br)c(O)c(Br)c1 [Molecule 27] | 10 ± 1 | 9 ± 1 |  | 15 ± 1 | 15.6 | 
4 | O=[N+]([O-])c1ccc(/C=C/c2ccc3ccccc3n2)o1 [Molecule 21] |  |  |  | 8 ± 1 | 8.41 | 9.7 ± 1.6

— article PMC9090415, “Discovery of small molecule inhibitors of Plasmodium falciparum apicoplast DNA polymerase” (Journal of Enzyme Inhibition and Medicinal Chemistry, 2022)
